Laboratory results as given in patent publication US11802107B2, “Compounds and methods of use” (Signum Biosciences, Inc., priority 2017, dated 2023).

Columns and labels:
Balb/C mice = test: Oxazolone-induced delayed-type hypersensitivity (DTH) in vivo model
How it was run: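 Male Balb/C mice (8-10 weeks) sensitized with 3% oxazolone on dorsal skin, ear-challenged on day 7 with 0.5%; test materials at 3% w/v topically to both ear surfaces 30 min post-challenge in 60:40 H2O:EtOH. Ear edema and IL-4 ELISA of 6-mm biopsies at 24 h; % inhibition, n=5-15/group.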

Swiss Webster (ICR) mice = test: TPA-induced skin irritation in vivo model (mouse ear); details: 24 hour
Method: Outbred male Swiss Webster (ICR) mice were purchased from Hilltop Lab Animals (Scottdale, PA) and were used between 10 and 12 weeks of age and we followed a similar protocol previously described (Gordon et al., 2008). Mice received 1.2 μg/20 μl TPA dissolved in acetone (10 μl applied both to the dorsal and ventral surfaces of the mouse ear using a solvent pipette) to each ear to induce acute irritation (6 per group). Test Materials were co-treated with TPA or applied 5 minutes after TPA dose, at various concentrations (0.6 to 800 μg/20 μl) in ethanol. After 24 hour treatment, edema was measured by ear thickness.

IL-8 = test: P. acnes-induced IL-8 on human NHEKs; type: cell-based; details: for IC50: Homo sapiens, NHEK, live P. acnes 10^7 CFU, 24 hours, ELISA, read-out: P. acnes-NHEK IL-8 Protein IC50; for P. acnes-induced IL-8 production: cultured human keratinocytes exposed to P. acnes
Method: Normal human epidermal keratinocytes (NHEKs) from neonatal donors were obtained from Thermo-Fisher (Cat No. C-001-5C). Cells were cultured in 96-well plates for 24 hours with EpiLife media (Cat No. MEPI500CA) supplemented with keratinocytes growth supplement (Cat No. S0015). On Day 2, media was removed and replaced with supplement-depleted medium for 24 hours. On Day 3, media was removed and cells were pre-treated with test materials ([…]) for 2 hours and later co-treated with test materials and live P. acnes (ATCC® 6919TM) at 10^7 CFU for 24 hours at 37° C. and 5% CO2. After incubation, cell media supernatants were harvested and used to measure pro-inflammatory cytokine levels (IL-8) using ELISA kits (BD Biosciences® #555244). Results were represented as percent of inhibition relative to untreated and P. acnes-only treated cells. IC50 values were determined by non-linear regression analysis using the four-parameter logistic equation.

TSLP = test: S. aureus-induced TSLP on NHEKs; type: cell-based; details: Homo sapiens; NHEK, live S. aureus ATCC 33591 1:1, 24 hours, ELISA; read-out: S. aureus-NHEK TSLP Protein IC50
Method: Normal human epidermal keratinocytes (NHEKs) from neonatal donors were obtained from Thermo-Fisher (Cat No. C-001-5C). Cells were cultured in 96-well plates for 24 hours with EpiLife media (Cat No. MEPI500CA) supplemented with keratinocytes growth supplement (Cat No. 50015). On Day 2, media was removed and replaced with supplement-depleted medium for 24 hours. On Day 3, media was removed and cells were pre-treated with test materials (≤[…]) for 2 hours and later co-treated with test materials and live S. aureus (ATCC® 33591) at 1:1 NHEK:bacteria ratio for 24 hours at 37° C. and 5% CO2. After incubation, cell media supernatants were harvested and used to measure TSLP levels using ELISA kit (R&D Systems® #DY1398). Results were represented as percent of inhibition relative to untreated and S. aureus-only treated cells. IC50 values were determined by non-linear regression analysis using the four-parameter logistic equation.

IL-22 = test: Anti-CD3/CD28+IL-4-induced IL-22 on PBMCs; type: cell-based; details: Homo sapiens, PBMC, anti-CD3/CD28 beads + 50 ng/mL IL-4, 48 hours, ELISA, read-out: TCR/IL-4-PBMCs IL-22 IC50
Method: Cryopreserved human Peripheral Blood Mononuclear cells (PBMCs) from healthy adult donors were obtained from Zen Bio, Inc (Cat No. SER-PBMC-F). Cells were cultured in 96-well plates with lymphocyte media (Cat No. LYMPH-1) and were pre-treated with test materials (≤100 μM) for 2 hours and later co-treated with test materials and anti-CD3/CD28 beads (Thermo-Fisher; Cat No. 11131D) and 50 ng/mL recombinant human IL-4 (R&D Systems® #204-IL) for 48 hours at 37° C. and 5% CO2. After incubation, cell media supernatants were harvested and used to measure cytokine levels (IL-22, IL-31) using ELISA kits (R&D Systems® #DY782, #DY2824). Results were represented as percent of inhibition relative to untreated and anti-CD3/CD28+IL-4 only treated cells. IC50 values were determined by non-linear regression analysis using the four-parameter logistic equation.

IL-23 = test: LPS/IFNγ-induced IL-23 on CD14+ monocytes; type: cell-based; details: Homo sapiens, Monocyte, 50 μg/mL LPS + 5 μg/mL IFNγ, 24 hours, ELISA
Method: Cryopreserved human peripheral blood monocytes cells (CD14+) from healthy adult donors were obtained from Zen Bio, Inc (Cat No. SER-CD4-F). Cells were cultured in 96-well plates with lymphocyte media (Cat No. LYMPH-1) and were pre-treated with test materials (≤100 μM) for 2 hours and later co-treated with test materials and 50 μg/mL LPS, 5 μg/mL IFNγ (Sigma Aldrich, Cat No. L4321, SRP3058) and incubated for 24 hours at 37° C. and 5% CO2. After incubation, cell media supernatants were harvested and used to measure cytokine levels (IL-23) using ELISA kits (R&D Systems® #DY1290). Results were represented as percent of inhibition relative to untreated and […] treated cells. IC50 values were determined by non-linear regression analysis using the four-parameter logistic equation.

[1] = Mus musculus, topical to ears @ 3% w/v, 24 hours, read-out: Edema % inhibition
[2] = topical @ 1% w/v, ear thickness
[3] = topical to ears @ 3% w/v, 24 hours, ear biopsy ELISA

Row | SMILES | IC50 (IL-8) [nM] | IC50 (TSLP) [nM] | IC50 (IL-22) [nM] | IC50 (IL-23) [nM] | inhibition in vivo at 3 % strength (Balb/C mice; [1]) [%] | Edema (% inhibition) (Swiss Webster (ICR) mice; [2]) [%] | Edema (% inhibition) (Balb/C mice; dose 0.2 Mg/ear, average±S.E.) [%] | MPO (% inhibition) (Balb/C mice; dose 0.2 Mg/ear, average±S.E.) [%] | Edema (% inhibition) (Balb/C mice; dose 0.6 Mg/ear, average±S.E.) [%] | MPO (% inhibition) (Balb/C mice; dose 0.6 Mg/ear, average±S.E.) [%] | Edema (% inhibition) (Balb/C mice; dose 1 Mg/ear, average±S.E.) [%] | MPO (% inhibition) (Balb/C mice; dose 1 Mg/ear, average±S.E.) [%] | IL-4 (% inhibition) (Balb/C mice; [3]) [%] | MPO (% inhibition) (Swiss Webster (ICR) mice; topical @ 1% w/v) [%] | P. acnes-induced IL-8 production (IL-8) | also measured
1 | N#Cc1ccc(Oc2ccc3c(c2)COB3O)cc1 [AN2728, reference compound] |  | 5000 | 2000 | 650 |  |  |  |  |  |  |  |  |  |  |  | inhibition in vivo at 2 % (Balb/C mice; Mus musculus, topical @2%, 24 hours, read-out: Edema % inhibition): 0%; Edema (% inhibition) (Balb/C mice; dose 0.4 Mg/ear, average±S.E.): 17 ± 5%; IL-4 (% inhibition) (Balb/C mice; dose 0.4 Mg/ear, average±S.E.): 76 ± 9%; MPO (% inhibition) (Balb/C mice; dose 0.4 Mg/ear, average±S.E.): 36 ± 12%; IL-4 (% inhibition) (Balb/C mice; topical @2%, 24 hours): 76 (@2%); Edema (% inhibition) (Swiss Webster (ICR) mice; topical, AN2728 at 2%): 43%
2 | C/C(=C\CSC[C@H](NC(=O)N1CCC[C@H]1C(=O)O)C(=O)O)CCCC(C)CCCC(C)CCCC(C)C (some centres unmarked) [Compound E] | 3 |  | > 25000 | 11200 | 51 |  |  |  | 22 |  | 51 ± 9 |  |  |  | inhibit IL-8 production | 
3 | C/C(=C\CSC[C@H](NC(=O)COCC(=O)O)C(=O)O)CCCC(C)CCCC(C)CCCC(C)C (some centres unmarked) [Compound T] |  | 10000 | > 25000 | 50 | 31 | 61 | 20 ± 4 | 30 ± 14 | 31 ± 6 | 41 ± 18 | 53 ± 8 | 71 ± 3 | 53 | 83 |  | 

The next lines start with results.

Row | IC50 (IL-8) [nM] | IC50 (TSLP) [nM] | IC50 (IL-22) [nM] | IC50 (IL-23) [nM] | SMILES | inhibition in vivo at 3 % strength (Balb/C mice; [1]) [%] | Edema (% inhibition) (Swiss Webster (ICR) mice; [2]) [%] | Edema (% inhibition) (Balb/C mice; dose 0.2 Mg/ear, average±S.E.) [%] | MPO (% inhibition) (Balb/C mice; dose 0.2 Mg/ear, average±S.E.) [%] | Edema (% inhibition) (Balb/C mice; dose 0.6 Mg/ear, average±S.E.) [%] | MPO (% inhibition) (Balb/C mice; dose 0.6 Mg/ear, average±S.E.) [%] | Edema (% inhibition) (Balb/C mice; dose 1 Mg/ear, average±S.E.) [%] | MPO (% inhibition) (Balb/C mice; dose 1 Mg/ear, average±S.E.) [%] | IL-4 (% inhibition) (Balb/C mice; [3]) [%] | MPO (% inhibition) (Swiss Webster (ICR) mice; topical @ 1% w/v) [%] | P. acnes-induced IL-8 production (IL-8) | also measured
4 | 120 | 9000 |  |  | C/C(=C\CSCC(NC(=O)NCC(=O)O)C(=O)O)CCCC(C)CCCC(C)CCCC(C)C (centres unmarked) [A] | 44 | 50 |  |  |  |  |  |  |  |  |  | 
5 | 40 | 3000 | > 25000 | 190 | C/C(=C\CSC[C@H](NC(=O)N(C)CC(=O)O)C(=O)O)CCCC(C)CCCC(C)CCCC(C)C (stereo partly drawn) [Compound C, (2R)-2-{[(carboxymethyl)(methyl)carbamoyl]amino}-3-{[(2E)-3,7,11,15-tetramethylhexadec-2-en-1-yl]sulfanyl}propanoic acid] | 53 | 64 | 23 ± 4 | 22 ± 9 | 53 ± 5 | 67 ± 23 | 72 ± 4 | 81 ± 5 | 41 | 88 |  | IL-4 (% inhibition) (Balb/C mice; dose 0.2 Mg/ear, average±S.E.): 33 ± 9%; IL-4 (% inhibition) (Balb/C mice; dose 0.6 Mg/ear, average±S.E.): 41 ± 10%; IL-4 (% inhibition) (Balb/C mice; dose 1 Mg/ear, average±S.E.): 62 ± 11%
6 | 68 |  | > 25000 | 3080 | C/C(=C\CSCC(NC(=O)N(CC(=O)O)CC(=O)O)C(=O)O)CCCC(C)CCCC(C)CCCC(C)C (centres unmarked) [Compound G] | 41 |  |  |  | 41 |  |  |  |  |  | inhibit IL-8 production | 
